Laboratory results taken from US5159077A, “Penam antibacterial compounds” (Hoffmann-La Roche Inc., priority 1989, dated 1992).
Counter-ions that a name gives are not always drawn. Like-named read-outs stand apart in the source and are kept apart here.

Legend:
[1] = tested on: Pseudomonas aeruginosa ATCC 27853; assay: In vitro MIC, Broth Dilution Method; assay type: cell-based
Description: (§1) The diluted agents prepared in Mueller-Hinton broth were dispensed from a Dynatech MIC 2000 machine, in 100 microliter (μL) volumes into 96 well trays and used immediately or frozen at -10° to -70° C. until needed. Using a Dynatech inoculator and inoculum trays, 1.5 μL of a 10^-2 dilution of an overnight culture was added to each well of the tray. The tops of the trays were then sealed with tape, and the trays were incubated overnight at 37° C. and then examined with a viewer. The lowest concentration at which no growth was observed was considered to be the minimum inhibitory concentration (MIC).

[2] = tested on: Proteus vulgaris ATCC 6380; assay: In vitro MIC, Broth Dilution Method; assay type: cell-based
Description: as §1

[3] = tested on: Enterobacter cloacae 5699; assay: In vitro MIC, Broth Dilution Method; assay type: cell-based
Description: as §1

Serratia marcescens SM [4] = assay: In vitro MIC, Broth Dilution Method; assay type: cell-based; details: read-out: In Vitro MIC
Description: as §1

[5] = tested on: Streptococcus pneumoniae 6301; assay: In vitro MIC, Broth Dilution Method; assay type: cell-based
Description: as §1

Proteus mirabilis 2 = assay: In vitro MIC, Broth Dilution Method; assay type: cell-based
Description: as §1

Escherichia coli 4 = assay: In vitro MIC, Broth Dilution Method; assay type: cell-based; details: Escherichia coli, 4, read-out: In Vitro MIC
Description: as §1

[6] = tested on: Staphylococcus aureus ATCC 29213; assay: In vitro MIC, Broth Dilution Method; assay type: cell-based
Description: as §1

Enterobacter cloacae P99 = assay: In vitro MIC, Broth Dilution Method; assay type: cell-based; details: P99, read-out: In Vitro MIC
Description: as §1

Escherichia coli TEM-1 = assay: In vitro MIC, Broth Dilution Method; assay type: cell-based; details: TEM1, read-out: In Vitro MIC
Description: as §1

[7] = tested on: Streptococcus faecalis ATCC 29212; assay: In vitro MIC, Broth Dilution Method; assay type: cell-based; details: Enterococcus faecalis
Description: as §1

Klebsiella pneumoniae A = assay: In vitro MIC, Broth Dilution Method; assay type: cell-based; details: read-out: In Vitro MIC
Description: as §1

[8] = tested on: Pseudomonas aeruginosa 56; assay: In vitro MIC, Agar Well Diffusion Method; assay type: cell-based
Description: (§2) In vitro antimicrobial activity was determined in BBL seed agar. Serial dilutions of the test compound were pipetted into agar wells (80 μL per well). […] For reference, see A. H. Litton, Antibiotics: Assessment of Antimicrobial Activity and Resistance, Academic Press, New York, pages 19-30 (1983).

Micrococcus luteus PCl = assay: In vitro MIC, Agar Well Diffusion Method; assay type: cell-based; details: read-out: In Vitro MIC
Description: as §2

Escherichia coli 1269B = assay: In vitro MIC, Agar Well Diffusion Method; assay type: cell-based; details: read-out: In Vitro MIC
Description: as §2

Serratia marcescens SM [9] = assay: In vitro MIC, Agar Well Diffusion Method; assay type: cell-based; details: read-out: In Vitro MIC
Description: as §2

Proteus vulgaris 101N = assay: In vitro MIC, Agar Well Diffusion Method; assay type: cell-based; details: read-out: In Vitro MIC
Description: as §2

[10] = tested on: Streptococcus faecium ATCC 8043; assay: In vitro MIC, Agar Well Diffusion Method; assay type: cell-based; details: Enterococcus faecium
Description: as §2

[11] = tested on: Klebsiella pneumoniae 369; assay: In vitro MIC, Agar Well Diffusion Method; assay type: cell-based
Description: as §2

[12] = tested on: Enterobacter cloacae 2952B; assay: In vitro MIC, Agar Well Diffusion Method; assay type: cell-based; details: read-out: In Vitro MIC
Description: as §2

Pseudomonas aeruginosa B = assay: In vitro MIC, Agar Well Diffusion Method; assay type: cell-based; details: read-out: In Vitro MIC
Description: as §2

Streptococcus 82 = assay: In vitro MIC, Agar Well Diffusion Method; assay type: cell-based, Streptococcus aureus
Description: as §2

[13] = tested on: Staphylococcus aureus Smith; assay: In vitro MIC, Broth Dilution Method; assay type: cell-based; details: read-out: In Vitro MIC
Description: as §1

[14] = tested on: Citrobacter freundii BS-16; assay: In vitro MIC, Broth Dilution Method; assay type: cell-based
Description: as §1

Proteus mirabilis 90 = assay: In vitro MIC, Broth Dilution Method; assay type: cell-based; details: Proteus mirabilis, 90, read-out: In Vitro MIC
Description: as §1

[15] = tested on: Pseudomonas aeruginosa Stone 130; assay: In vitro MIC, Broth Dilution Method; assay type: cell-based; details: STONE130; Broth Dilution Method; Pseudomonas aeruginosa Stone 130; read-out: In Vitro MIC
Description: as §1

[16] = Proteus vulgaris, ATCC6380, read-out: In Vitro MIC
[17] = Enterobacter cloacae, 5699, read-out: In Vitro MIC
[18] = ATCC27853, Broth Dilution Method, Pseudomonas aeruginosa ATCC 27853, read-out: In Vitro MIC
[19] = Broth Dilution Method, Proteus mirabilis 2, read-out: In Vitro MIC
[20] = ATCC29212, Broth Dilution Method, Streptococcus faecalis ATCC 29212, read-out: In Vitro MIC
[21] = Broth Dilution Method, Klebsiella pneumoniae A

Molecule `CCn1cc(C(=O)[O-])c(=O)c2cc(F)c(N3CCN(C=N[C@@H]4C(=O)N(S(=O)(=O)[O-])[C@@H]4COC(N)=O)CC3)cc21.[Na+].[Na+]` [Compound F, (2S-cis)-7-[4-[[[2-[[(Aminocarbonyl)oxy]methyl]-4-oxo-1-sulfo-3-azetidinyl]imino]methyl]-1-piperazinyl]-1-ethyl-6-fluoro-1,4-dihydro-4-oxo-3-quinolinecarboxylic acid disodium salt] has an MIC ([1]; Pseudomonas aeruginosa, ATCC27853, read-out: In Vitro MIC) of 2 µg/mL, an MIC [2, 16] of 0.031 µg/mL and an MIC [3, 17] of 0.063 µg/mL. It also gave an MIC (Serratia marcescens SM [4]; Serratia marcescens) of 0.063 µg/mL, an MIC ([5]; Streptococcus pneumoniae, 6301, read-out: In Vitro MIC) of 8 µg/mL and an MIC (Proteus mirabilis 2; Proteus mirabilis, 2, read-out: In Vitro MIC) of 0.063 µg/mL. It also gave an MIC (Escherichia coli 4) of 0.125 µg/mL, an MIC ([6]; Staphylococcus aureus, ATCC29213, read-out: In Vitro MIC) of 2 µg/mL and an MIC (Enterobacter cloacae P99) of 0.125 µg/mL. It also gave an MIC (Escherichia coli TEM-1) of 0.063 µg/mL, an MIC ([7]; ATCC29212, read-out: In Vitro MIC) of 4 µg/mL and an MIC (Klebsiella pneumoniae A; Klebsiella pneumoniae) of 0.125 µg/mL. It also gave an MIC ([8]; Pseudomonas aeruginosa, 56, read-out: In Vitro MIC) of 7.8 µg/mL, an MIC (Micrococcus luteus PCl; Micrococcus luteus) of 500 µg/mL and an MIC (Escherichia coli 1269B; Escherichia coli, 1269B) of 7.8 µg/mL. For the same molecule, the MIC (Serratia marcescens SM [9]; Serratia marcescens) was 62.5 µg/mL, the MIC (Proteus vulgaris 101N; Proteus vulgaris, 101N) was 1.95 µg/mL and the MIC ([10]; ATCC8043, read-out: In Vitro MIC) was 500 µg/mL. For the same molecule, the MIC ([11]; Klebsiella pneumoniae, 369, read-out: In Vitro MIC) was 3.9 µg/mL, the MIC ([12]; Enterobacter cloacae, 2952B) was 31.3 µg/mL and the MIC (Pseudomonas aeruginosa B; Pseudomonas aeruginosa) was 7.8 µg/mL. It also gave an MIC (Streptococcus 82; Streptococcus, 82, read-out: In Vitro MIC) of 31.3 µg/mL.

`CCn1cc(C(=O)O)c(=O)c2cc(F)c(N3CCN(C=N[C@@H]4C(=O)N5[C@@H]4SC(C)(C)[C@@H]5C(=O)O)CC3)cc21` [Compound B, [2S-(2α,5α,6β)]-7-[4-[[[2-(Carboxy)-3,3-dimethyl-7-oxo-4-thia-1-azabicyclo[3.2.0]hept-6-yl]imino]methyl]-1-piperazinyl]-1-ethyl-6-fluoro-1,4-dihydro-4-oxo-3-quinolinecarboxylic acid monosodium salt] showed an MIC [1, 18] of 8 µg/mL, an MIC [2, 16] of 0.063 µg/mL and an MIC ([13]; Broth Dilution Method, Staphylococcus aureus Smith) of 0.25 µg/mL. It also gave an MIC ([14]; BS16, Broth Dilution Method, Citrobacter freundii BS-16, read-out: In Vitro MIC) of 0.25 µg/mL, an MIC [3, 17] of 0.063 µg/mL and an MIC (Serratia marcescens SM [4]; Broth Dilution Method, Serratia marcescens SM) of 0.125 µg/mL. The MIC (Proteus mirabilis 2; [19]) was 0.125 µg/mL, the MIC (Enterobacter cloacae P99) was 0.063 µg/mL and the MIC (Escherichia coli TEM-1) was 0.031 µg/mL. It also gave an MIC [7, 20] of 2 µg/mL, an MIC (Klebsiella pneumoniae A; [21]) of 0.125 µg/mL and an MIC ([8]; Agar Well Diffusion Method, Pseudomonas aeruginosa 56, read-out: In Vitro MIC) of 7.8 µg/mL. The MIC (Micrococcus luteus PCl; Agar Well Diffusion Method, Micrococcus luteus PCl) was 31.3 µg/mL, the MIC (Escherichia coli 1269B; Agar Well Diffusion Method, Escherichia coli 1269B) was 0.98 µg/mL and the MIC (Serratia marcescens SM [9]; Agar Well Diffusion Method, Serratia marcescens SM) was 62.5 µg/mL. For the same molecule, the MIC (Proteus vulgaris 101N; Agar Well Diffusion Method, Proteus vulgaris 101N) was 1.95 µg/mL, the MIC ([10]; ATCC8043, Agar Well Diffusion Method, Streptococcus faecium ATCC 8043, read-out: In Vitro MIC) was 62.5 µg/mL and the MIC ([11]; Agar Well Diffusion Method, Klebsiella pneumoniae 369, read-out: In Vitro MIC) was 3.9 µg/mL. The MIC ([12]; Agar Well Diffusion Method, Enterobacter cloacae 2952B) was 15.6 µg/mL, the MIC (Pseudomonas aeruginosa B; Agar Well Diffusion Method, Pseudomonas aeruginosa B) was 7.8 µg/mL and the MIC (Streptococcus 82; Agar Well Diffusion Method, Streptococcus aureus 82, read-out: In Vitro MIC) was 7.8 µg/mL.

Molecule `CCn1cc(C(=O)O)c(=O)c2cc(F)c(N3CCN(C=N[C@@H]4C(=O)N5C(C(=O)O)=C(CSc6nc(=O)c(=O)[nH]n6C)CS[C@H]45)CC3)cc21` [Compound J, [6R-[6α,7β(Z)]]-7-[4-[[[2-Carboxy-3-[[(1,2,5,6-tetrahydro-2-methyl-5,6-dioxo-1,2,4-triazin-3-yl)thio]methyl]-8-oxo-5-thia-1-azabicyclo[4.2.0]-oct-2-en-7-yl]-imino]methyl]-1-piperazinyl]-ethyl-6-fluoro-1,4-dihydro-4-oxo-3-quinolinecarboxylic acid disodium salt] has an MIC [1, 18] of 16 µg/mL, an MIC ([2]; ATCC6380, Broth Dilution Method, Proteus vulgaris ATCC 6380, read-out: In Vitro MIC) of 0.125 µg/mL and an MIC ([13]; Staphylococcus aureus) of 1 µg/mL. The MIC (Proteus mirabilis 90) was 1 µg/mL, the MIC ([14]; Citrobacter freundii, BS16, read-out: In Vitro MIC) was 0.5 µg/mL and the MIC ([3]; Broth Dilution Method, Enterobacter cloacae 5699, read-out: In Vitro MIC) was 0.25 µg/mL. It also gave an MIC (Serratia marcescens SM [4]; Serratia marcescens) of 0.5 µg/mL, an MIC ([5]; Broth Dilution Method, Streptococcus pneumoniae 6301, read-out: In Vitro MIC) of 2 µg/mL and an MIC (Proteus mirabilis 2; [19]) of 0.5 µg/mL. It also gave an MIC (Escherichia coli 4) of 0.25 µg/mL, an MIC ([6]; ATCC29213, Broth Dilution Method, Staphylococcus aureus ATCC 29213, read-out: In Vitro MIC) of 2 µg/mL and an MIC (Enterobacter cloacae P99) of 0.5 µg/mL. It also gave an MIC (Escherichia coli TEM-1) of 0.25 µg/mL, an MIC [15] of 8 µg/mL and an MIC [7, 20] of 0.25 µg/mL. The MIC (Klebsiella pneumoniae A; [21]) was 0.5 µg/mL.
